The values that follow come from article PMC7414126 (Scientific Reports, 2020).

Where two headings read alike, the source gives them in different places.

The target in data set [1] is T1, hH2R-Gsαs fusion protein (Homo sapiens, UniProt P25021).
T1 construct: made in house; host or cells: Sf9 insect cells (recombinant baculovirus), membrane preparation
As to the kind of experiment: Radioligand saturation binding on Sf9 membranes. The conditions noted are these: membranes of Sf9 insect cells expressing hH2R-Gsαs. The protocol: (§1) All data analysis was performed using Prism 5.0c (GraphPad, San Diego, CA, USA).
Supplementary Figure S7. […] Saturation binding assay was performed as previously described.^3

Data set [2] deals with hH2R. The conditions noted are these: [125I]-iodoaminopotentidine, re-calculated from published Ki; cited from earlier work.
The target of data set [3] is T2, NLuc-hH2R (Homo sapiens, UniProt P25021).
T2 construct: membrane signal peptide of the murine 5HT3A receptor (N); expressed in transfected cells
Description: BRET-based competition binding with fluorescent ligand 8. The settings on record: competition with 8 (c = 50 nM), live HEK293T cells stably expressing NLuc-hH2R, 60 min; mean ± SEM; read-out: pKi (NanoBRET) (converted). The procedure:
(§2) KG, Wertheim, Germany). The cells were then incubated at 37 °C in a humidified atmosphere (no additional CO2) overnight. […] After 60 min incubation time at 27 °C, 10 μL of the substrate furimazine, which was diluted according to manufacturer's protocol beforehand, were added. After 5 min of equilibration time at 27 °C, the measurement was started. […] After addition of the diluted substrate, the plate was placed inside the reader for 5 min to equilibrate. […] Dissociation experiments were conducted in wells, which have been preincubated with 8 as described above for association experiments. […] All measurements were performed on a TECAN InfiniteLumi plate reader (TECAN, Grödig, Austria) at 27 °C using the Blue2 NB (460 nm ± 35 nm, bandpass) and the Red NB (> 610 nm, longpass) filter combination with an integration time of 100 ms. For the kinetic experiments, integration time was increased to 500 ms for both channels to reduce noise. BRET ratios were calculated by dividing the acceptor emission (red NB) by the donor luminescence (Blue2 NB). For all BRET binding experiments, specific binding was calculated by subtracting non-specific binding from total binding yielding the “corrected BRET ratio”. For saturation binding experiments, total and non-specific binding were fitted simultaneously using the “one-site total and nonspecific binding” fit. Specific binding was fitted accordingly applying the “one-site specific binding” fit. […] The normalized competition binding curves were then fitted with a four-parameter logistic fit yielding pIC50-values. These were transformed into pKi-values using the Cheng-Prusoff equation[38].
Background: Bioluminescence resonance energy transfer reports proximity on the nanometre scale.

Data set [4] addresses T1, hH2R-Gsαs fusion protein. As to the kind of experiment: Radioligand competition binding with [3H]UR-DE257 on Sf9 membranes. The conditions noted are these: read-out: pKi (RL comp. binding Sf9 membranes) (converted). The protocol: as §1
On the technique in general: In a radioligand displacement assay an active substance lowers the binding of a labelled ligand.

The target of data set [5] is T2, NLuc-hH2R. Description: NanoBRET saturation binding assay. The procedure: as §2
Data set [6] is described as follows: Chemical stability in binding buffer (HPLC). In kind it is physicochemical. The protocol: The chemical stability of the fluorescent H2R ligands UR-KAT478 (8), UR-KAT515 (9) and UR-KAT514 (10) was investigated at physiological pH (7.4) in binding buffer (12.5 mM MgCl2, 1 mM EDTA and 75 mM Tris/HCl, pH 7.4)^1 and in case of UR-KAT514 (10) as well in a mixture of DMSO/binding buffer 1:1. Incubation was started by addition of 27.5 μL of a 2.5 mM solution of the respective compounds in DMSO/Millipore H2O 1:1, which were freshly prepared from a 5 mM stock solution in DMSO, to 522.5 μL of binding buffer or DMSO/binding buffer 1:1 yielding a final concentration of […]. The samples were shaken for up to 4 days at 700 rpm. After indicated time periods, a 70 μL aliquot was taken and diluted with 70 µL of a mixture of MeCN, Millipore H2O and 10% aqueous TFA (60:90:1). Prior to HPLC analysis, the samples were stored at -20 °C. 50 μL of the resulting solution were analyzed by HPLC as described in the experimental section. The absorption was detected at 220 nm. The blank HPLC run was performed under identical conditions without any ligand.

Data set [7] has as its target T3, hH2R (Homo sapiens, UniProt P25021). Description: Flow cytometric saturation binding assay with HEK293T-hH2R-qs5-HA cells. Set-up: expressed in transfected cells; host or cells: HEK293T-hH2R-qs5-HA cells. The conditions noted are these: saturation binding at HEK293T-hH2R-qs5-HA cells; mean ± SEM; read-out: pKd (Flow cytometry) (converted). The protocol:
All flow cytometric measurements were performed with FACSCanto™II flow cytometer (Becton Dickinson, Heidelberg, Germany), equipped with an argon laser (488 nm) and a red diode laser (633 nm) (settings: FCS: A, log, 0 V; SSC: A, log, 252 V; ACP: A,H,W, log, 350 V or PerCP-Cy5-5: A,H, log 485 V or PE: A,H,W, log, 420 V) according to general protocols with minor modifications.^4,5 All measurements were performed in duplicate and recorded either in channel PerCP-Cy5 (Py-1, excitation: 488 nm), APC (BODIPY 630/650, excitation: 633 nm) or PE (TAMRA, excitation: 488 nm). Data acquisition was stopped after 10,000 gated events.
Cell culture and preparation of HEK293T-hH2R-qs5-HA cells was performed as described.^4 Briefly, cells were maintained in 25 or 175 cm^2 flasks (Sarstedt, Nümbrecht, Germany) in a humidified atmosphere (95% air, 5% CO2) at 37 °C using Dulbecco`s Modified Eagle`s Medium supplemented with 2 mM L-glutamine (Sigma-Aldrich, Munich, Germany), 10% FCS, 400 µg/mL geneticin (G418), and 100 µg/mL hygromycin B (AG Scientific, San Diego, CA, USA). On the day of the experiment, cells were detached with trypsin/EDTA (0.05%/0.2%) and centrifuged (500 x g, 5 min). The cell pellet was resuspended in Leibovitz’ L-15 medium containing 1% FCS and the cell density was adjusted to 1 x 10^6 cells/mL. The serial dilutions of the tested fluorescent ligands and famotidine (competitor, for non-specific binding) were prepared in DMSO/H2O (1:1, v/v). All incubation steps were performed in 96-well Primaria^TM plates (CORNING, NY, USA). 200 µL of the adjusted cell suspension were either added to 2 µL of DMSO/H2O (1:1, v/v, total binding) or to 2 µl of famotidine (300-fold excess over the fluorescent ligand, non-specific binding). Incubation was started by addition of 2 µL of the respective fluorescent ligand in different concentrations (100-fold concentrated with respect to the final concentration). […] Samples were transferred to 5 mL polystyrol FACS tubes (Sarstedt, Nümbrecht, Germany) and measured immediately. […]

Data set [8] has as its target T3, hH2R. Description: β-Arrestin2 recruitment assay (split-luciferase complementation), HEK293T-ARRB2-H2R cells. Also noted: expressed in transfected cells; host or cells: HEK293T-ARRB2-H2R cell line. The settings on record: read-out: pKb (β-arrestin2 recruitment) (converted). In kind it is cell-based. (Arrestin recruitment assays detect the binding of arrestin to an activated receptor.)
Description: One day prior to the experiment, the cells were detached with trypsin/EDTA (0.05%/0.2%) and were centrifuged (500 x g, 5 min). The cells were resuspended in Leibovitz’ L-15 medium + 5% FCS + 10 mM HEPES and the density of the suspension was adjusted to 1.25 x 10^6 cells/mL (agonist mode) or 1.4 x 10^6 cells/mL (antagonist mode). 80 µL (agonist mode) or 70 µL (antagonist mode) of the cell suspension were seeded in white, tissue culture-treated, flat bottom 96-well microtiter plates (Brand, Wertheim, Germany). The cells were incubated at 37 °C overnight in a water saturated atmosphere w/o additional CO2. […] In the meantime, serial dilutions of the tested compounds (10-fold concentrated with respect to the final concentration) were prepared in L-15 + 10 mM HEPES and pre-warmed to 37 °C. After the baseline-read, the dilutions of the test compounds (10 µL/well) were transferred to the 96-well plate. […] For the determination of antagonism, the dilutions of the test compounds (10 µL/well) were transferred to the 96-well plate directly after the addition of D-luciferin (as described above) and the baseline was recorded like in the agonist mode. […] Normalized data were fitted applying a four-parameter logistic fit yielding pIC50 values, which were then transformed into pKb values using the Cheng-Prusoff equation.^8 All data analysis was performed using Prism 5.0c (GraphPad, San Diego, CA, USA).

For data set [9], the target named is T4, hH2R-Gsαs fusion protein (Homo sapiens, UniProt P25021+P63092).
T4 construct: made in house; host or cells: Sf9 insect cells (recombinant baculovirus), membrane preparation
The conditions noted are these: [3H]UR-DE257; cited from earlier work.

Where [10] appears, read: representative NanoBRET saturation isotherm, result from single experiment, HEK293T NLuc-hH2R, read-out: Kd* (single experiment).
The mark [11] stands for this setting: saturation binding, live HEK293T cells stably expressing NLuc-hH2R, mean ± SEM, read-out: pKd (NanoBRET) (converted).

T3 sequence (P25021 whole entry): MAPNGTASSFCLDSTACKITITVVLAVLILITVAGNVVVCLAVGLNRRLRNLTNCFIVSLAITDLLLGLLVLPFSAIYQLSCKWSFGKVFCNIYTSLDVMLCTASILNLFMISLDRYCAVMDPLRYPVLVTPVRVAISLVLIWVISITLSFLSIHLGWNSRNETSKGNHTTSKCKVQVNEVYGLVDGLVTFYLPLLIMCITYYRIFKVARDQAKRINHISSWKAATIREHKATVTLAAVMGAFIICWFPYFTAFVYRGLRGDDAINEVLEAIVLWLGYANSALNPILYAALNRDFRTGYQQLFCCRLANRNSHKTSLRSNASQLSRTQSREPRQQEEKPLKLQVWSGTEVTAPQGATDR
T2 sequence (P25021 whole entry): as above
T1 sequence (P25021+P63092 fused): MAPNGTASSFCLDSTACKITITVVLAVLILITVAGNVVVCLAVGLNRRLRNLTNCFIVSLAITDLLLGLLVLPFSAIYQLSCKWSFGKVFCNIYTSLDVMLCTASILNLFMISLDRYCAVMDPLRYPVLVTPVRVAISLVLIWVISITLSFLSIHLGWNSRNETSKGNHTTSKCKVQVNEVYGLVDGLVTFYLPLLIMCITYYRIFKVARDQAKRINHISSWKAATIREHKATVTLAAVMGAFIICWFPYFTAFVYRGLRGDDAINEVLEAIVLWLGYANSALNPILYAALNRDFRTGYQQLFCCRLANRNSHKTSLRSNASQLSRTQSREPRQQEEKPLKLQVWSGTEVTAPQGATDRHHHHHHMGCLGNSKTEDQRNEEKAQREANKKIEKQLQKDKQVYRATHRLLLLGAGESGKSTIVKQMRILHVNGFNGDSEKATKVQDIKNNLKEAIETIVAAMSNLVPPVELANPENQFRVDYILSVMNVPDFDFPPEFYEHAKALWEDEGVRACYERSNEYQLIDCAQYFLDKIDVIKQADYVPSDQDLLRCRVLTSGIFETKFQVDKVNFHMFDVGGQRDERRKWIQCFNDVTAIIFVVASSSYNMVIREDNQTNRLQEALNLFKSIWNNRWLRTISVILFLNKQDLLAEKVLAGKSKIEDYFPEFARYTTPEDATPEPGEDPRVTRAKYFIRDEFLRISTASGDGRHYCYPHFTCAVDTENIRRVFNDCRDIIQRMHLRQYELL
T4 sequence (P25021+P63092 fused): as above

`[3H]CC([3H])C(=O)NCCCCCCNc1c(NCCCOc2cccc(CN3CCCCC3)c2)c(=O)c1=O` (stereo not drawn) [Compound 7] returned a Kd in data set [1] of 11.2 nM.
Take `CN/C(=N/CCSCc1nc[nH]c1C)NC#N` [Compound 2, cimetidine]: the “pKi (RL comp. binding CHO membranes)” value in [2] was 6.18[32].
With `CCCCCCCCCCCCNC(=N)NCCCc1sc(N)nc1C` [Compound 11, reference compound], the Ki was 1020 nM in data set [3] and 251 nM in data set [4].
For `CN(C)c1ccc2c(-c3ccc(C(=O)NCCCCNc4c(NCCCOc5cccc(CN6CCCCC6)c5)c(=O)c4=O)cc3C(=O)[O-])c3ccc(N(C)C)cc3[o+]c2c1` [Compound 9, 2-(3,6-Bis(dimethylamino)xanthylium-9-yl)-5-((4-((3,4-dioxo-2-((3-(3-(piperidin-1-ylmethyl)phenoxy)propyl)amino)cyclo-but-1-en-1-yl)amino)butyl)carbamoyl)benzoate], the Kd was 143 nM in [5] (setting [10]), 145 nM in data set [5] (setting [11]) and 562 nM in [7]. Moreover, the Ki in [4] was 100 nM. Besides, the “Chemical stability (decomposition)” value in [6] (binding buffer pH 7.4, rt, 24 h incubation) is recorded as “no decomposition”. Besides, the Kb in data set [8] was 66.1 nM.
`NC(N)=Nc1nc(CSCCC(N)=NS(N)(=O)=O)cs1` [Compound 4, famotidine]: the Ki in data set [3] is 11.5 nM. In addition, the “pKi (RL comp. binding Sf9 membranes)” value in data set [9] was 6.87[28]. Besides, the “pKi (RL comp. binding CHO membranes)” value in data set [2] is 7.80[32].
As for `Cc1nc(N)sc1CCCNC(=N)NCCCCCCCCNC(=N)NCCCc1sc(N)nc1C` [Compound 12, reference compound], the Ki in data set [3] is 1320 nM; in [4], 457 nM.
Turning to `O=C(CCCCCNC(=O)COc1ccc(/C=C/C2=[N+]3C(=Cc4ccc(-c5cccs5)n4[B-]3(F)F)C=C2)cc1)NCCCCNc1c(NCCCOc2cccc(CN3CCCCC3)c2)c(=O)c1=O` [Compound 10], the Kd in data set [5] (setting [10]) was 2.99 nM; in [5] (setting [11]), 2.57 nM; in data set [7] it was 13.8 nM. Besides, the Ki in data set [4] was 4.47 nM. For the same molecule, the “Adsorption to plastic vessel” value in [6] (BB/DMSO 1:1, rt) is recorded as “reduced adsorption”. The “Chemical stability (degradation)” value in data set [6] (binding buffer pH 7.4, rt) is listed as “no chemical degradation”. The “HPLC signal of compound after incubation (adsorption to plastic vessel)” value in data set [6] (binding buffer pH 7.4, rt, after one hour) is given as “almost no signal”. Further, the Kb in data set [8] was 8.13 nM.
As for `CNC(=C[N+](=O)[O-])NCCSCc1ccc(CN(C)C)o1` [Compound 3, ranitidine], the “pKi (RL comp. binding CHO membranes)” value in data set [2] was 7.07[32].
